# Experimental data as given in US20060004019A1, “Steroid sparing agents and methods of using same” (priority 2004, published 2006).
# Experiments:
# rat cardiac allografts [1] = experiment: Rat cardiac allograft study, Allograft Study 5, dose response (Table 23); format: in vivo
# rat cardiac allografts [2] = experiment: Rat cardiac allograft study, Allograft Study 4 (Table 22); details: s.c., GG5/3 3 mg/kg, compounds 30 mg/kg;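 also: heterotopic abdominal heart transplants from Lewis × Brown Norway F1 donors into male Lewis rats, graft beating checked daily by flank palpation, rejection defined as complete stop of heartbeat, transplant day 0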
# Protocol: Hearts from Lewis X Brown Norway F1 hybrids were transplanted to the abdominal great vessels of Lewis recipients using standard microvascular techniques. Both rat strains were male inbred rats, weighing 200-300 g. Food and water was available at all times except during surgical and dosing procedures. The day of transplantation was noted as day 0. Twelve hours following the last dose approximately 1 ml of blood was collected into lithium/heparin anti-coagulant tubes. If any graft was rejected prior to the last day of dosing, blood samples were taken 12 hours after dosing on the day that graft rejection was noted. All blood samples were centrifuged at 3000 rpm for 10 minutes and the plasma was harvested, frozen on dry ice and stored frozen at −20 C prior to analysis. Allograft survival in the rats was evaluated by daily palpation of the transplanted heart through the recipient's flank. Rejection was taken as the day of complete cessation of the graft's heart beat. Upon determination of rejection, the abdomen of the recipient was incised and retracted to confirm cessation of the heart beat in the transplanted heart. If cessation of the heart beat was not confirmed the abdomen was surgically closed, and the grafted heart was evaluated daily.
# Cardiac allografts were established. Dosing of compounds began on day −2, 2 days prior to transplantation and continued through day +10. […] The vehicle control, 0.9% saline, pH adjusted to a value of 5, to match the dosing solution containing the N-[N-(3-pyridinesulfonyl)-L-3,3-dimethyl-4-thiaprolyl]-0-[1-methylpiperazin-4-ylcarbonyl]-L-tyrosine isopropyl ester, was administered via the same route, i.e. every 12 hours, day −2 through day +10. The antibody, GG5/3 in 0.9% saline, was administered at 3 mg/kg, s.c., on day 0, +3, +7 and +10. All GG5/3 animals received twice daily s.c. injections of 0.9% saline, every 12 hours, from day −2 through day +10. The vehicle control, 0.9% saline, was administered daily, s.c., day 0 through day +10. All dosing solutions were formulated daily at a constant dose volume of 5 ml/kg. The site of injection was rotated at each injection through four possible sites: right and left fore flank, right and left rear flank. A total of 21 allografts, amongst 5 groups, were evaluated in the study. […] Two animals within the 0.9% saline group received saline adjusted to a pH a value of 5. (The pH value of the N-[N-(3-pyridinesulfonyl)-L-3,3-dimethyl-4-thiaprolyl]-0-[1-methylpiperazin-4-ylcarbonyl]-L-tyrosine isopropyl ester dosing solution.) The remaining two animals received saline of pH 7. Group 2 consisted of 6 animals treated with the monoclonal antibody, GG5/3. […] Twelve hours following the last dose approximately 1 ml of blood was collected into lithium/heparin anti-coagulant tubes. If any graft was rejected prior to the last day of dosing, blood samples were taken 12 hours after dosing on the day that graft rejection was noted. All samples were centrifuged at 3000 rpm for 10 minutes and the plasma was harvested, frozen on dry ice and stored frozen at −20 C prior to dispatch for analysis. Allograft survival in the rats was evaluated by daily palpation of the transplanted heart through the recipient's flank. Rejection was taken as the day of complete cessation of graft's heart beat. Upon determination of rejection, the abdomen of the recipient was incised to confirm cessation of the heart beat in the transplanted heart. If cessation of the heart beat was not confirmed the abdomen was surgically closed, and the graft was evaluated daily.
structure (smiles),measurement,setting,value
CC(C)OC(=O)[C@H](Cc1ccc(OC(=O)N2CCN(C)CC2)cc1)NC(=O)[C@H]1N([S+]([O-])c2cccnc2)CSC1(C)C (some centres unmarked),number of surviving grafts,"rat cardiac allografts [1]; day 0, 3 mg/kg s.c.",6
same,number of surviving grafts,"rat cardiac allografts [1]; day 1, 3 mg/kg s.c.",6
same,number of surviving grafts,"rat cardiac allografts [1]; day 2, 3 mg/kg s.c.",6
same,number of surviving grafts,"rat cardiac allografts [1]; day 3, 3 mg/kg s.c.",6
same,number of surviving grafts,"rat cardiac allografts [1]; day 4, 3 mg/kg s.c.",6
same,number of surviving grafts,"rat cardiac allografts [1]; day 5, 3 mg/kg s.c.",6
same,number of surviving grafts,"rat cardiac allografts [1]; day 6, 3 mg/kg s.c.",6
same,number of surviving grafts,"rat cardiac allografts [1]; day 7, 3 mg/kg s.c.",5
same,number of surviving grafts,"rat cardiac allografts [1]; day 8, 3 mg/kg s.c.",5
same,number of surviving grafts,"rat cardiac allografts [1]; day 9, 3 mg/kg s.c.",3
same,number of surviving grafts,"rat cardiac allografts [1]; day 10, 3 mg/kg s.c.",0
same,number of surviving grafts,"rat cardiac allografts [1]; day 11, 3 mg/kg s.c.",0
same,number of surviving grafts,"rat cardiac allografts [1]; day 12, 3 mg/kg s.c.",0
same,number of surviving grafts,"rat cardiac allografts [1]; day 13, 3 mg/kg s.c.",0
same,number of surviving grafts,"rat cardiac allografts [1]; day 14, 3 mg/kg s.c.",0
same,"graft survival, data normalized to group size","rat cardiac allografts [1]; day 15, 3 mg/kg s.c.",0%
same,number of surviving grafts,"rat cardiac allografts [1]; day 15, 3 mg/kg s.c.",0
same,"graft survival, data normalized to group size","rat cardiac allografts [1]; day 16, 3 mg/kg s.c.",16%
same,number of surviving grafts,"rat cardiac allografts [1]; day 16, 3 mg/kg s.c.",0
same,"graft survival, data normalized to group size","rat cardiac allografts [1]; day 17, 3 mg/kg s.c.",17%
same,number of surviving grafts,"rat cardiac allografts [1]; day 17, 3 mg/kg s.c.",0
same,"graft survival, data normalized to group size","rat cardiac allografts [1]; day 18, 3 mg/kg s.c.",18%
same,number of surviving grafts,"rat cardiac allografts [1]; day 18, 3 mg/kg s.c.",0
same,"graft survival, data normalized to group size","rat cardiac allografts [1]; day 19, 3 mg/kg s.c.",19%
same,number of surviving grafts,"rat cardiac allografts [1]; day 19, 3 mg/kg s.c.",0
same,"graft survival, data normalized to group size","rat cardiac allografts [1]; day 20, 3 mg/kg s.c.",20%
same,number of surviving grafts,"rat cardiac allografts [1]; day 20, 3 mg/kg s.c.",0
same,"graft survival, data normalized to group size","rat cardiac allografts [1]; day 21, 3 mg/kg s.c.",21%
same,number of surviving grafts,"rat cardiac allografts [1]; day 21, 3 mg/kg s.c.",0
CC(C)OC(=O)[C@H](Cc1ccc(OC(=O)N2CCN(C)CC2)cc1)NC(=O)[C@H]1N(S(=O)(=O)c2cccnc2)CSC1(C)C [listing 1 of 3 here],number of surviving grafts,rat cardiac allografts [2]; day 0,6
same,number of surviving grafts,rat cardiac allografts [2]; day 1,6
same,number of surviving grafts,rat cardiac allografts [2]; day 2,6
same,number of surviving grafts,rat cardiac allografts [2]; day 3,6
same,number of surviving grafts,rat cardiac allografts [2]; day 4,6
same,number of surviving grafts,rat cardiac allografts [2]; day 5,6
same,number of surviving grafts,rat cardiac allografts [2]; day 6,6
same,number of surviving grafts,rat cardiac allografts [2]; day 7,6
same,number of surviving grafts,rat cardiac allografts [2]; day 8,6
same,number of surviving grafts,rat cardiac allografts [2]; day 9,5
same,number of surviving grafts,rat cardiac allografts [2]; day 10,4
same,number of surviving grafts,rat cardiac allografts [2]; day 11,4
same,number of surviving grafts,rat cardiac allografts [2]; day 12,4
same,number of surviving grafts,rat cardiac allografts [2]; day 13,4
same,number of surviving grafts,rat cardiac allografts [2]; day 14,4
same,number of surviving grafts,rat cardiac allografts [2]; day 15,4
same,number of surviving grafts,rat cardiac allografts [2]; day 16,3
same,number of surviving grafts,rat cardiac allografts [2]; day 17,3
same,number of surviving grafts,rat cardiac allografts [2]; day 18,3
same,number of surviving grafts,rat cardiac allografts [2]; day 19,3
CC(C)OC(=O)[C@H](Cc1ccc(OC(=O)N2CCN(C)CC2)cc1)NC(=O)[C@H]1N(S(=O)(=O)c2cccnc2)CSC1(C)C [listing 2 of 3 here],number of surviving grafts,"rat cardiac allografts [1]; day 0, 10 mg/kg s.c.",5
same,number of surviving grafts,"rat cardiac allografts [1]; day 1, 10 mg/kg s.c.",5
same,number of surviving grafts,"rat cardiac allografts [1]; day 2, 10 mg/kg s.c.",5
same,number of surviving grafts,"rat cardiac allografts [1]; day 3, 10 mg/kg s.c.",5
same,number of surviving grafts,"rat cardiac allografts [1]; day 4, 10 mg/kg s.c.",5
same,number of surviving grafts,"rat cardiac allografts [1]; day 5, 10 mg/kg s.c.",5
same,number of surviving grafts,"rat cardiac allografts [1]; day 6, 10 mg/kg s.c.",5
same,number of surviving grafts,"rat cardiac allografts [1]; day 7, 10 mg/kg s.c.",5
same,number of surviving grafts,"rat cardiac allografts [1]; day 8, 10 mg/kg s.c.",5
same,number of surviving grafts,"rat cardiac allografts [1]; day 9, 10 mg/kg s.c.",4
same,number of surviving grafts,"rat cardiac allografts [1]; day 10, 10 mg/kg s.c.",4
same,number of surviving grafts,"rat cardiac allografts [1]; day 11, 10 mg/kg s.c.",4
same,number of surviving grafts,"rat cardiac allografts [1]; day 12, 10 mg/kg s.c.",4
same,number of surviving grafts,"rat cardiac allografts [1]; day 13, 10 mg/kg s.c.",2
same,number of surviving grafts,"rat cardiac allografts [1]; day 14, 10 mg/kg s.c.",2
same,"graft survival, data normalized to group size","rat cardiac allografts [1]; day 15, 10 mg/kg s.c.",40%
same,number of surviving grafts,"rat cardiac allografts [1]; day 15, 10 mg/kg s.c.",2
same,"graft survival, data normalized to group size","rat cardiac allografts [1]; day 16, 10 mg/kg s.c.",20%
same,number of surviving grafts,"rat cardiac allografts [1]; day 16, 10 mg/kg s.c.",1
same,"graft survival, data normalized to group size","rat cardiac allografts [1]; day 17, 10 mg/kg s.c.",20%
same,number of surviving grafts,"rat cardiac allografts [1]; day 17, 10 mg/kg s.c.",1
same,"graft survival, data normalized to group size","rat cardiac allografts [1]; day 18, 10 mg/kg s.c.",20%
same,number of surviving grafts,"rat cardiac allografts [1]; day 18, 10 mg/kg s.c.",1
same,"graft survival, data normalized to group size","rat cardiac allografts [1]; day 19, 10 mg/kg s.c.",20%
same,number of surviving grafts,"rat cardiac allografts [1]; day 19, 10 mg/kg s.c.",1
same,"graft survival, data normalized to group size","rat cardiac allografts [1]; day 20, 10 mg/kg s.c.",20%
same,number of surviving grafts,"rat cardiac allografts [1]; day 20, 10 mg/kg s.c.",1
same,"graft survival, data normalized to group size","rat cardiac allografts [1]; day 21, 10 mg/kg s.c.",20%
same,number of surviving grafts,"rat cardiac allografts [1]; day 21, 10 mg/kg s.c.",1
CC(C)OC(=O)[C@H](Cc1ccc(OC(=O)N2CCN(C)CC2)cc1)NC(=O)[C@H]1N(S(=O)(=O)c2cccnc2)CSC1(C)C [listing 3 of 3 here],number of surviving grafts,"rat cardiac allografts [1]; day 0, 30 mg/kg s.c.",6
same,number of surviving grafts,"rat cardiac allografts [1]; day 1, 30 mg/kg s.c.",6
same,number of surviving grafts,"rat cardiac allografts [1]; day 2, 30 mg/kg s.c.",6
same,number of surviving grafts,"rat cardiac allografts [1]; day 3, 30 mg/kg s.c.",6
same,number of surviving grafts,"rat cardiac allografts [1]; day 4, 30 mg/kg s.c.",6
same,number of surviving grafts,"rat cardiac allografts [1]; day 5, 30 mg/kg s.c.",6
same,number of surviving grafts,"rat cardiac allografts [1]; day 6, 30 mg/kg s.c.",6
same,number of surviving grafts,"rat cardiac allografts [1]; day 7, 30 mg/kg s.c.",6
same,number of surviving grafts,"rat cardiac allografts [1]; day 8, 30 mg/kg s.c.",6
same,number of surviving grafts,"rat cardiac allografts [1]; day 9, 30 mg/kg s.c.",6
same,number of surviving grafts,"rat cardiac allografts [1]; day 10, 30 mg/kg s.c.",6
same,number of surviving grafts,"rat cardiac allografts [1]; day 11, 30 mg/kg s.c.",6
same,number of surviving grafts,"rat cardiac allografts [1]; day 12, 30 mg/kg s.c.",6
same,number of surviving grafts,"rat cardiac allografts [1]; day 13, 30 mg/kg s.c.",6
same,number of surviving grafts,"rat cardiac allografts [1]; day 14, 30 mg/kg s.c.",6
same,"graft survival, data normalized to group size","rat cardiac allografts [1]; day 15, 30 mg/kg s.c.",100%
same,number of surviving grafts,"rat cardiac allografts [1]; day 15, 30 mg/kg s.c.",6
same,"graft survival, data normalized to group size","rat cardiac allografts [1]; day 16, 30 mg/kg s.c.",100%
same,number of surviving grafts,"rat cardiac allografts [1]; day 16, 30 mg/kg s.c.",6
same,"graft survival, data normalized to group size","rat cardiac allografts [1]; day 17, 30 mg/kg s.c.",100%
same,number of surviving grafts,"rat cardiac allografts [1]; day 17, 30 mg/kg s.c.",6
same,"graft survival, data normalized to group size","rat cardiac allografts [1]; day 18, 30 mg/kg s.c.",100%
same,number of surviving grafts,"rat cardiac allografts [1]; day 18, 30 mg/kg s.c.",6
same,"graft survival, data normalized to group size","rat cardiac allografts [1]; day 19, 30 mg/kg s.c.",100%
same,number of surviving grafts,"rat cardiac allografts [1]; day 19, 30 mg/kg s.c.",6
same,"graft survival, data normalized to group size","rat cardiac allografts [1]; day 20, 30 mg/kg s.c.",100%
same,number of surviving grafts,"rat cardiac allografts [1]; day 20, 30 mg/kg s.c.",6
same,"graft survival, data normalized to group size","rat cardiac allografts [1]; day 21, 30 mg/kg s.c.",83%
same,number of surviving grafts,"rat cardiac allografts [1]; day 21, 30 mg/kg s.c.",5
